Source: patent US20070149554A1, “Cancer chemotherapy” (Yung Shin Pharmaceutical Ind. Co., Ltd., priority 2005, published 2007)

What was measured:
A498 renal cancer cells = assay: A498 renal cancer xenograft tumor growth in athymic nude mice; format: in vivo; settings: single agent; Compound 1 10 mg/kg/day oral in 0.5% CMC; paclitaxel or doxorubicin 20 mg/kg/week i.p.; nude mice with A498 tumors
Method: Athymic nude mice (BALB/c nu/nu female, 6-8 week old) were housed at 22° C. on a 12 h light/dark cycle. The mice were subcutaneously injected with A498 renal cancer cells (10^7 cell/mouse). After inoculation for 15 days, tumors were grown to a size of 100 to 150 mm^3. The mice were then randomly divided into six grounds (5 mice in each group). […] (paclitaxel and doxorubicin are commercial products). […] The tumors were carefully removed and weighed.

WEHI-3 leukemia cells = assay: Survival, organ and body weight, spleen histopathology of BALB/c mice bearing WEHI-3 leukemia cells; format: in vivo; settings: for mean survival time of WEHI-3/BALB/c mice: 30 mg/kg/mouse i.p., untreated 30 days, text of b65; for Survival days Range / Survival days Mean ± S.D.: 30 mg/kg/mouse, QD*7 (once two days by seven times), 10 mice; for Survival days Range: untreated 20-30; for Survival days Mean ± S.D.: untreated 26.0 ± 3.9; for infiltration of immature myeloblastic cells into splenic red pulp: H-E stain of spleen section, FIG. 2; for body weight loss in leukemia mice: within one month of experiment, data not shown
Method: Murine myelomonocytic leukemia cell line WEHI-3 was obtained from the Food Industry Research and Development Institute (Hsinchu, Taiwan). […] This cell line can induce leukemia in syngenic BALB/c mice for evaluating anti-leukemia effects of drugs.
Specifically, BLAB/c mice were divided into 4 groups. Group I was injected i.p. with WEHI-3 only. […] Control mice and all groups of mice were treated for 2 weeks before the animals were weighed and the blood was draw and sacrificed for further experiments.
The spleen and liver tissues were isolated from individual animals, photographed, weighed, and histopathologically examined.

WEHI-3 cells [1] = assay: NBT reduction (differentiation) in WEHI-3 cells; format: cell-based, murine; settings: 24 h; for percentages of NBT positive cells: FIG. 3B
WEHI-3 cells [2] = assay: TUNEL/DAPI staining (apoptosis) in WEHI-3 cells; format: cell-based, murine; settings: for TUNEL positive cells: 24 h, FIG. 3B; for nuclear shrinkage, chromatin condensation and DNA fragmentation (TUNEL/DAPI): 24 h culture, FIG. 3A
Hep3B cells = settings: cited from earlier work
WEHI-3 cells [3] = assay: DNA fragmentation by agarose gel electrophoresis in WEHI-3 cells; settings: compound 1 at 5 μM, 12 and 24 h; FIG. 4A
Method: (§1) The results were expressed as mean±S.D. and the difference between the groups was tested by one way ANOVA.

caspase-3 = assay: Caspase-3 activity assay in WEHI-3 cells; settings: 12, 18 and 24 h treatment; 50 μM of compound 1; FIG. 4B
Method: as §1

[4] = test system: human hepatocellular carcinoma HA22T cells; settings: cited from earlier work
platelet = settings: cited from earlier work
WEHI-3 cells [5] = assay: Cell cycle analysis of WEHI-3 cells in vitro; format: cell-based, murine; settings: compound 1 5 μM, ATRA 1 μM, 24 h; data not shown

| Structure (SMILES) | tumor size compared with control group (A498 renal cancer cells) | mean survival time of WEHI-3/BALB/c mice (WEHI-3 leukemia cells) [days] | Survival days Range (WEHI-3 leukemia cells) [days] | Survival days Mean ± S.D. (WEHI-3 leukemia cells) [days] | infiltration of immature myeloblastic cells into splenic red pulp (WEHI-3 leukemia cells) | body weight loss in leukemia mice (WEHI-3 leukemia cells) | NBT-reduction compared with control cells (WEHI-3 cells [1]) | percentages of NBT positive cells (WEHI-3 cells [1]) [%] | TUNEL positive cells (WEHI-3 cells [2]) [%] | nuclear shrinkage, chromatin condensation and DNA fragmentation (TUNEL/DAPI) (WEHI-3 cells [2]) | hypoxia induction of erythropoietin and vascular endothelial growth factor (Hep3B cells) | DNA fragmentation (agarose gel) (WEHI-3 cells [3]) | caspase-3 activity (caspase-3) | cell cycle arrest [4] | antiplatelet activity (platelet) | sub-G1 population (WEHI-3 cells [5]) |
| --- | --- | --- | --- | --- | --- | --- | --- | --- | --- | --- | --- | --- | --- | --- | --- | --- |
| CC(=O)O[C@H]1C(=O)[C@@]2(C)[C@H]([C@H](OC(=O)c3ccccc3)[C@]3(O)C[C@H](OC(=O)[C@H](O)[C@@H](NC(=O)c4ccccc4)c4ccccc4)C(C)=C1C3(C)C)[C@]1(OC(C)=O)CO[C@@H]1C[C@@H]2O [paclitaxel, Paclitaxel] | smaller tumors than those in the control group | – | – | – | – | – | – | – | – | – | – | – | – | – | – | – |
| CC1=C(/C=C/C(C)=C/C=C/C(C)=C/C(=O)O)C(C)(C)CCC1 [ATRA, all trans retinoic acid, reference compound] | – | 42 | 26 to 42 | 33.9 ± 5.0 | reduced | improved the body weight loss | significant increases | 33.42 | 5.45 | not observed | – | – | – | – | – | – |
| COc1cccc2c1C(=O)c1c(O)c3c(c(O)c1C2=O)C[C@@](O)(C(=O)CO)C[C@@H]3O[C@H]1C[C@H](N)[C@H](O)[C@H](C)O1 [doxorubicin, Doxorubicin] | smaller tumors than those in the control group | – | – | – | – | – | – | – | – | – | – | – | – | – | – | – |
| OCc1ccc(-c2nn(Cc3ccccc3)c3ccccc23)o1 [Compound 1, 1-benzyl-3-(5′-hydroxymethyl-2′-furyl)indazole] | smaller tumors than those in the control group | 40 | 22 to 40 | 32.3 ± 4.9 | reduced | improved the body weight loss | – | 3.56 | 40.33 | exhibited nuclear shrinkage, chromatin condensation and DNA fragmentation | inhibits hypoxia induction of erythropoietin and vascular endothelial growth factor | fragmented into a ladder of 180-200 base pairs | rapid induction of caspase-3 activity | arresting cell cycles at the Go/G1 stage | novel antiplatelet agent | increased sub-GI population |
